In paper PMC6934184, “Selective DNA-PKcs inhibition extends the therapeutic index of localized radiotherapy and chemotherapy” (The Journal of Clinical Investigation, 2019) one finds inhibition data, which are given here for 1 compound.

The assay deals with T1, PKN2 (PRK2) (Homo sapiens, UniProt Q16513).
T1 construct: purchased Thermo Fisher Scientific (Life Technologies) SelectScreen
As to the kind of experiment: SelectScreen LanthaScreen. To be noted: read-out: % displacement. In kind it is binding. A digest of the protocol:
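SelectScreen broad panel; activity (Z'LYTE, Adapta) plus binding formats. ATP: Km app for CSF1R Z'LYTE; 10 for CAMK1 Adapta. Readout = % per kinase.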

SMILES strings stand for the structures.

T1 sequence (Q16513 whole entry): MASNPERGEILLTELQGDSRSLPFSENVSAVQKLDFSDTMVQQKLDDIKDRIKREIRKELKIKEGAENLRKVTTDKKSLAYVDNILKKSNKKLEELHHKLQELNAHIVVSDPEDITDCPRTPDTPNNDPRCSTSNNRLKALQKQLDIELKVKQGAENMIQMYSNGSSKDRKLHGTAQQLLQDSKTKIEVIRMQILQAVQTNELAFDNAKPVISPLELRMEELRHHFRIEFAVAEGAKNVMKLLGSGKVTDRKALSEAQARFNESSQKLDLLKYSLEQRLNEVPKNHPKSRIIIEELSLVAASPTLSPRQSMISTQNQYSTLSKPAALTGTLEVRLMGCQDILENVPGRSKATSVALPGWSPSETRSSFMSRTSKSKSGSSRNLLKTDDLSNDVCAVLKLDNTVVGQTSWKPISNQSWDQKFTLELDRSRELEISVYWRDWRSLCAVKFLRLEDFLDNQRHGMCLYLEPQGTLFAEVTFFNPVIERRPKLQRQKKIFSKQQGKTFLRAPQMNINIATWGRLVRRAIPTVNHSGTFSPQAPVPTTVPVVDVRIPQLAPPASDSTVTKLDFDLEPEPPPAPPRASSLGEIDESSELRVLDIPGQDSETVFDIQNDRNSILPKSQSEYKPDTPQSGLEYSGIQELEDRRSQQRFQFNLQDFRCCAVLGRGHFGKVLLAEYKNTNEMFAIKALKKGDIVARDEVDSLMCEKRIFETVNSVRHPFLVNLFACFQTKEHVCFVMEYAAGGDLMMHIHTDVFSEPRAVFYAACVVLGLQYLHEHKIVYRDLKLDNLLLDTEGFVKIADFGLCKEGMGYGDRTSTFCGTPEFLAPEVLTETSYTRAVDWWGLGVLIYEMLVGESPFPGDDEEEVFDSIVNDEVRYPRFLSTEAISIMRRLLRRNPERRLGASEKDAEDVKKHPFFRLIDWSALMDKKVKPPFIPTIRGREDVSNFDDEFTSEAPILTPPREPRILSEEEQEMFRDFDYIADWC

Turning to `CN(C(=O)CN1CCOCC1)c1ccc2sc3c(-c4cccc5c(=O)cc(N6CC7CCC(C6)O7)oc45)cccc3c2c1` [NU5455], the inhibition at 1 µM is -1%.
